{
  "source": "patent US20170273948A1",
  "about": "“USE OF SIGMA RECEPTOR LIGANDS IN OSTEOARTHRITIS” (LABORATORIOS DEL DR ESTEVE S.A., priority 2014, published 2017)",
  "key": {"[1]": {"tested_on": "osteoarthritic-induced allodynia (MIA-induced osteoarthritis)", "assay": "MIA-induced osteoarthritis in rats: mechanical (tactile) allodynia, paw withdrawal threshold to von Frey filaments", "assay_type": "in vivo, rat", "conditions": "for progressive amelioration of the basal pain (PRE) found before daily treatments: Example A, three weeks i.p. b.i.d.; for progressive amelioration of the basal pain (PRE) found before daily treatments / analgesia (analgesic effect, POST) / analgesic effect (POST): example 1 60 mg/kg, Tramadol 20 mg/kg; for analgesia (analgesic effect, POST): day 1, single treatment, i.p.; for analgesia (analgesic effect, POST) / analgesic effect (POST): 30 min after treatment; for analgesic effect (POST): day 22, after three weeks of treatment i.p. b.i.d.; for pain after treatment discontinuation (wash out): versus initial situation", "protocol": "Male Sprague-Dawley rats (Harlan, San Pietro Nastisone, Udine, Italia), weighing 50-75 g on arrival at the laboratory, were used. Animals were allowed to acclimate for one week in groups of five per cage in a room with constant temperature (21±1° C.) and relative humidity (60%), and free access to food and water ad libitum. Automatic light-on and -off allowed alternate light-dark cycles of 12 h:12 h, with light-on at 7:00 a.m. Procedures were approved by the Committee on Animal Research Ethics of ESTEVE and conformed to the guidelines of the IASP (Zimmermann, 1983). In particular, the duration of the experiments was kept as short as possible and the number of rats used was minimized.\nOsteoarthritis in rats was induced by intraarticular (i.a.) injection of monosodium iodoacetate (MIA) in the right knee joint, essentially as described by Dunham et al. (1993). After one week of acclimation, rats were briefly anesthetized with isoflurane (5% in 02 at 600 cc/min; IsoFlo®, Veterinaria ESTEVE, MI, Italy) until lack of response to a toe pinch. Surgical area was swabbed with chlorohexidine and alcohol, then a single injection of MIA (50 μl of a 40 mg/ml solution in 0.9% saline, i.e. equal to 2 mg/injection) was delivered using a 28-gauge needle inserted into the joint space of the knee through the intra-patellar ligament, by a gentle flexion of the knee. Sham animals received, in parallel, an equal volume of 0.9% sterile saline.\nThe MIA dose to obtain a prolonged, marked decrease in mechanical thresholds to von Frey filaments pressure was selected on the basis of a dose-response experiment (not shown). After recovery, animals were returned to their home cage.\nRats […] to the test conditions beforehand were assigned into wire mesh bottom cylinders (transparent metacrylate, 300 mm high×200 mm diameter) and allowed to acclimatize prior the start of the experiment. Tactile allodynia was assessed by determination of the paw withdrawal threshold (PWT) to von Frey filaments stimulation, starting 1 to 15 grams, on the plantar surface of the hind paw. Each filament was applied 3 s until a withdrawal response occurred. A single response indicated a positive response. PWTs were assessed in both the inflamed (ipsilateral) and non-inflamed (contralateral) hind paw and expressed as grams. Control thresholds in the contralateral paw were established in a similar fashion. Nociceptive thresholds were measured prior to MIA injection (Day 0) then after 2 weeks (Day 14) in order to assess allodynia. Only rats with a significant decrease in the minimal pressure (threshold) to trigger ipsilateral versus contralateral hindpaw withdrawal were included in the pharmacological groups; non-responders (noninjured animals) were considered an exclusion criteria. Each animal was used in only one experiment, after which it was sacrificed by CO2.\nOA was induced by MIA injection at day −14 in the intra-patellar ligament of the right hindpaw. Sham animals received, in parallel, 50 μl of sterile saline solution. Two weeks later, allodynic rats were characterized by a marked decrease in the minimal pressure (threshold) to trigger withdrawal of the ipsilateral hindpaw (vs. the contralateral hindpaw) when stimulated by using von Frey monofilaments. From day 1 rats received chronic treatment (i.p, b.i.d.) for three weeks (until day 22) with Example 1 or Tramadol for three weeks, and treatment was then discontinued and mechanical allodynia evaluated after 2 days and 7 days (days 24 and 29, respectively) (wash-out period) (FIG. 1).\nTwo weeks after MIA injection into the knee, rats suffering from mechanical allodynia received a chronic treatment (3 weeks i.p, b.i.d.) with Example 1 (60 mg/kg, FIG. 2A) or Tramadol (20 mg/kg, FIG. 2B). […]"}, "[2]": {"tested_on": "osteoarthritic-induced allodynia (MIA-induced osteoarthritis)", "assay": "MIA-induced osteoarthritis in rats: mechanical (tactile) allodynia, paw withdrawal threshold to von Frey filaments", "assay_type": "in vivo, rat", "conditions": "for progressive amelioration of the basal pain (PRE) found before daily treatments: Example B, i.p. b.i.d., oxycodone 2.5 mg/kg; for progressive amelioration of the basal pain (PRE) found before daily treatments / analgesia (POST): Ex.3 40 mg/kg; for analgesia (POST): day 1, single treatment, i.p., 30 min after treatment, Oxycodone 2.5 mg/kg; for analgesic effect (POST): day 29, repeated daily treatments i.p. b.i.d., Ex. 3 40 mg/kg after four weeks, Oxycodone 2.5 mg/kg after three weeks"}, "sigma (σ-2) site": {"biological_target": "sigma (σ-2) site (Homo sapiens, UniProt Q5BJF2)", "sequence (Q5BJF2 whole entry)": "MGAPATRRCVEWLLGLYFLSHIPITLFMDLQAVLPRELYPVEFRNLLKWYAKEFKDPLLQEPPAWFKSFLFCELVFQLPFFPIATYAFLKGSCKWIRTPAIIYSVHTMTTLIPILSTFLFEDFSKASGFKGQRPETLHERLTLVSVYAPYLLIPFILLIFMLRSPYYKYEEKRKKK", "conditions": "cited from earlier work"}, "sigma 1 (σ-1) site": {"biological_target": "sigma 1 (σ-1) site (Homo sapiens, UniProt Q99720)", "sequence (Q99720 whole entry)": "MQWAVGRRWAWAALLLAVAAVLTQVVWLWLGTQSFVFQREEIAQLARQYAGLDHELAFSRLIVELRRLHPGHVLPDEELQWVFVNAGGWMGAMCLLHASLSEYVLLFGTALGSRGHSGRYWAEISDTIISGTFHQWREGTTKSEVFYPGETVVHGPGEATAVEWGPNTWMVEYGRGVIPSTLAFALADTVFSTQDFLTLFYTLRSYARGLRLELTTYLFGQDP", "conditions": "cited from earlier work"}, "[3]": {"conditions": "listed as example 1, hydrochloride"}},
  "note": "Structures can show the parent of a compound that is named as a salt.",
  "data": [
    {"compound": "COc1cccc(C2(O)CCCCC2CN(C)C)c1", "note": "(stereo not drawn) [Tramadol, reference compound]", "values": [
      {"measurement": "progressive amelioration of the basal pain (PRE) found before daily treatments", "setting": "[1]", "value": "not"},
      {"measurement": "analgesia (analgesic effect, POST)", "setting": "[1]", "value": "around 90%"},
      {"measurement": "analgesic effect (POST)", "setting": "[1]", "value": "~10", "unit": "%"}
    ]},
    {"compound": "CC(=O)N1CCN(CCOCc2ccn(-c3ccc(F)c(F)c3)n2)CC1", "note": "[Example 3, 1-(4-(2-((1-(3,4-difluorophenyl)-1H-pyrazol-3-yl)methoxy)ethyl)piperazin-1-yl)ethanone hydrochloride]", "values": [
      {"measurement": "progressive amelioration of the basal pain (PRE) found before daily treatments", "setting": "[2]", "value": "progressively ameliorates the basal pain"},
      {"measurement": "analgesia (POST)", "setting": "[2]", "value": "around 5%"},
      {"measurement": "analgesic effect (POST)", "setting": "[2]", "value": "around 60%"},
      {"measurement": "reduction of basal pain (PRE) found before daily treatments", "setting": "[2]; day 30, Ex.3 40 mg/kg i.p. b.i.d.", "value": 65, "unit": "%"}
    ]},
    {"compound": "COc1ccc2c3c1O[C@H]1C(=O)CC[C@@]4(O)[C@@H](C2)N(C)CC[C@]314", "note": "[Oxycodone, reference compound]", "values": [
      {"measurement": "progressive amelioration of the basal pain (PRE) found before daily treatments", "setting": "[2]", "value": "not"},
      {"measurement": "analgesia (POST)", "setting": "[2]", "value": "~65", "unit": "%"},
      {"measurement": "analgesic effect (POST)", "setting": "[2]", "value": "~15", "unit": "%"}
    ]},
    {"compound": "Cc1cc(OCCN2CCOCC2)nn1-c1ccc2ccccc2c1", "note": "[Example 1, 4-{2-[5-Methyl-1-(naphthalen-2-yl)-1H-pyrazol-3-yloxy]ethyl}morpholine hydrochloride]", "values": [
      {"measurement": "progressive amelioration of the basal pain (PRE) found before daily treatments", "setting": "[1]", "value": "progressively ameliorates the basal pain"},
      {"measurement": "analgesia (analgesic effect, POST)", "setting": "[1]; hydrochloride", "value": "~40", "unit": "%"},
      {"measurement": "analgesia (analgesic effect, POST)", "setting": "[1]; [3]", "value": "around 40%"},
      {"measurement": "pain after treatment discontinuation (wash out)", "setting": "[1]; day 2 after discontinuation (day 24)", "value": "still reduced"},
      {"measurement": "pain after treatment discontinuation (wash out)", "setting": "[1]; day 7 after discontinuation (day 29)", "value": "went back to the initial situation"},
      {"measurement": "analgesic effect (POST)", "setting": "[1]; hydrochloride", "value": 90, "unit": "%"},
      {"measurement": "analgesic effect (POST)", "setting": "[1]; [3]", "value": "around 90%"},
      {"measurement": "reduction of basal pain (PRE) found before daily treatments", "setting": "[1]; day 22, before first morning administration, example 1 60 mg/kg i.p. b.i.d.", "value": 80, "unit": "%"},
      {"measurement": "analgesic tolerance (loss of analgesic efficacy following repeated treatment)", "setting": "[1]; repeated treatment i.p. b.i.d. for three weeks", "value": "does not induce analgesic tolerance"}
    ]},
    {"compound": "SKF 10047", "values": [
      {"measurement": "affinity for the sigma (σ-2) site", "setting": "sigma (σ-2) site", "value": "micromolar"},
      {"measurement": "affinity for the sigma 1 (σ-1) site", "setting": "sigma 1 (σ-1) site", "value": "nanomolar"}
    ]}
  ]
}
